{"source": "paper PMC4047118", "about": "“BM-1197: A Novel and Specific Bcl-2/Bcl-xL Inhibitor Inducing Complete and Long-Lasting Tumor Regression In Vivo” (PLoS ONE, 2014)", "key": {"[1]": {"tested_on": "H146 xenograft tumors", "test": "H146 subcutaneous xenograft model", "format": "in vivo, SCID mice", "method": "(§1) Tumor sizes were measured 2–3 times per week. Tumor growth inhibition was calculated by using the formula: 100% (mean volume of controls - mean volume of treated)/mean volume of controls.\n(§2) Figure 10 In vivo antitumor activity of BM-1197. […] Data shown are mean ± SEM for 6–8 mice. (E & F) SCID mice bearing H146 or H1963 cells were treated with 10 mg/kg of BM-1197 IV for the indicated times. Tumor lysates were analyzed by immunoblotting."}, "[2]": {"tested_on": "H889", "test": "SCLC cell growth inhibition (WST-8), H889", "format": "cell-based", "details": "Homo sapiens, NCI-H889; 96-h incubation, means ± SD (n = 3–6)", "method": "(§3) All the SCLC cell lines were purchased from American Type Culture Collection (Manassas, VA) and cultured as recommended. All these cell lines were passaged fewer than 6 months after purchase. MCL1 knockout (MCL1^−/−) MEF cells were kindly provided by Dr. David Huang (The Walter and Eliza Hall Institute of Medical Research, Melbourne, Australia). Cell growth inhibition was evaluated by means of a WST-8 assay (Dojindo, Rockville, MD) as described previously. Mitochondrial membrane potential was determined by JC-1 staining using a JC-1 Mitochondrial Membrane Potential Assay kit (Cayman). Apoptosis analysis was performed using an Annexin V/propidium iodide (PI) apoptosis detection kit (Roche Applied Sciences, Indianapolis, IN)."}, "[3]": {"target": "Bcl-2 (Homo sapiens, UniProt P10415)", "sequence (P10415 whole entry)": "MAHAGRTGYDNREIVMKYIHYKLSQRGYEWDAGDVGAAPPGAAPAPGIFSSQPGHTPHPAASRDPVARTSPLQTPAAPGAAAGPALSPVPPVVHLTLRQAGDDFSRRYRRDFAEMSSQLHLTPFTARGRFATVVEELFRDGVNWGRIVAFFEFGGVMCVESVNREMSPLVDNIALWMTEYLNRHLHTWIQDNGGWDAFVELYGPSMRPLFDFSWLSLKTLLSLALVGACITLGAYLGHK", "test": "fluorescence-polarization (FP) binding assay, Bcl-2", "details": "means ± SD (n≥3)", "text": "(§4) BM-1197 ( Fig 1 ), was synthesized in a similar manner as described for BM-1074 [16]. We evaluated the binding affinities of BM-1197 to Bcl-2, Bcl-xL and Mcl-1 proteins using our optimized fluorescence-polarization (FP) binding assays.\n(§5) Data are expressed as means ± SD (n≥3)."}, "[4]": {"tested_on": "DMS53", "test": "SCLC cell growth inhibition (WST-8), DMS53", "format": "cell-based", "details": "Homo sapiens, DMS-53; 96-h incubation, means ± SD (n = 3–6)", "method": "as §3"}, "[5]": {"tested_on": "H1963", "test": "SCLC cell growth inhibition (WST-8), H1963", "format": "cell-based", "details": "Homo sapiens, NCI-H1963; 96-h incubation, means ± SD (n = 3–6)", "method": "as §3"}, "[6]": {"tested_on": "H1963 xenograft tumors", "test": "H1963 subcutaneous xenograft model", "format": "in vivo, SCID mice", "method": "as §1, §2"}, "[7]": {"tested_on": "DMS79", "test": "SCLC cell growth inhibition (WST-8), DMS79", "format": "cell-based", "details": "Homo sapiens, DMS-79; 96-h incubation, means ± SD (n = 3–6)", "method": "as §3"}, "[8]": {"tested_on": "H211", "test": "SCLC cell growth inhibition (WST-8), H211", "format": "cell-based", "details": "Homo sapiens, NCI-H211; 96-h incubation, means ± SD (n = 3–6)", "method": "as §3"}, "[9]": {"tested_on": "H187", "test": "SCLC cell growth inhibition (WST-8), H187", "format": "cell-based", "details": "Homo sapiens, NCI-H187; 96-h incubation, means ± SD (n = 3–6)", "method": "as §3"}, "[10]": {"tested_on": "H1417", "test": "SCLC cell growth inhibition (WST-8), H1417", "format": "cell-based", "details": "Homo sapiens, NCI-H1417; 96-h incubation, means ± SD (n = 3–6)", "method": "as §3"}, "[11]": {"target": "T1, Bcl-xL (Mus musculus, UniProt Q64373)", "T1 construct": "endogenous in cells; host or cells: MEF MCL1-/- cells", "T1 sequence (Q64373 whole entry)": "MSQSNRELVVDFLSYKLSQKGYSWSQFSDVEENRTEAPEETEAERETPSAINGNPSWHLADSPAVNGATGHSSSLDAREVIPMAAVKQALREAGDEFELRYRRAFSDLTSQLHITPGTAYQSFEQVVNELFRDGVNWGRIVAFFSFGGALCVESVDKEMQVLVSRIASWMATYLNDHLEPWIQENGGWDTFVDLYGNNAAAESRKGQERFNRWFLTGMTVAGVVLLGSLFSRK", "test": "cellular thermal shift assay (CETSA), Bcl-xL", "format": "cell-based", "details": "MEF MCL1−/− cells", "method": "Drug-target engagement was assessed using CETSA as described by Molina et al.. Briefly, cells were treated with drugs for 1 h, then harvested, washed with PBS, and resuspended in PBS. The resuspended cells were freeze-thawed 4 times. The soluble fraction (lysate) was separated from cell debris by centrifugation at 20000×g for 20 minutes at 4°C and then analyzed by Western blots.\nDrug-treated cells were heated at gradient temperature from 42°C to 62°C for 3 min then freeze-thawed 4 times. The soluble fractions of the lysed cells were analyzed by immunoblotting. (B) MEF MCL1^− ^/− cells were treated with drugs at the indicated doses for 1 h before collected for CETSA."}, "[12]": {"tested_on": "H196", "test": "SCLC cell growth inhibition (WST-8), H196", "format": "cell-based", "details": "Homo sapiens, NCI-H196; 96-h incubation, means ± SD (n = 3–6)", "method": "as §3"}, "[13]": {"tested_on": "H82", "test": "SCLC cell growth inhibition (WST-8), H82", "format": "cell-based", "details": "Homo sapiens, NCI-H82; 96-h incubation, means ± SD (n = 3–6)", "method": "as §3"}, "[14]": {"tested_on": "H146", "test": "SCLC cell growth inhibition (WST-8), H146", "format": "cell-based", "details": "Homo sapiens", "method": "as §3\nData are representative of two independent experiments."}, "[15]": {"tested_on": "panel of 12 SCLC cell lines", "test": "growth inhibition in a panel of 12 SCLC cell lines (summary)", "format": "cell-based, human", "details": "for IC50: Homo sapiens", "method": "as §3"}, "[16]": {"tested_on": "SW1271", "test": "SCLC cell growth inhibition (WST-8), SW1271", "format": "cell-based", "details": "Homo sapiens, 96-h incubation, means ± SD (n = 3–6)", "method": "as §3"}, "[17]": {"target": "Bcl-xL (Homo sapiens, UniProt Q07817)", "sequence (Q07817 whole entry)": "as the sequence (Q64373 whole entry) above, with E40G, A43S, R45M, S168A, D193E counted along it", "test": "fluorescence-polarization (FP) binding assay, Bcl-xL", "details": "means ± SD (n≥3)", "text": "as §4, §5"}, "[18]": {"tested_on": "DMS273", "test": "SCLC cell growth inhibition (WST-8), DMS273", "format": "cell-based", "details": "Homo sapiens, DMS-273; 96-h incubation, means ± SD (n = 3–6)", "method": "as §3"}, "[19]": {"details": "IV daily 10 mg/kg, 5 days per week for 2 weeks, 8 mice"}, "[20]": {"details": "single dose 10 mg/kg IV, as early as 3 h, persisting at least 24 hr"}}, "note": "“And” between values parts separate entries of the source, which are not always exact repeats. Identical values can stand only once. Like-named read-outs stand apart in the source and are kept apart here.", "data": [{"compound": "Cc1c(S(C)(=O)=O)c(-c2cc(F)cc(N3CCN(c4ccc(NS(=O)(=O)c5ccc(N[C@H](CCN6CCC(O)CC6)CSc6ccccc6)c(S(=O)(=O)C(F)(F)F)c5)cc4)CC3)c2)c(-c2ccc(Cl)cc2)n1C(C)C", "note": "[BM-1197]", "values": [{"measurement": "mice tumor free 50 days after the end of the weekly treatment", "setting": "[1]; 15 mg/kg weekly IV", "result": "5 of 8"}, {"measurement": "mice with complete tumor regression after eight weekly doses", "setting": "[1]; 15 mg/kg weekly IV", "result": "7 of 8"}, {"measurement": "mice with complete tumor regression after five weekly doses", "setting": "[1]; 15 mg/kg weekly IV", "result": "4 of 8"}, {"measurement": "decrease of mean tumor volume after 7 doses", "setting": "[1]; IV daily 10 mg/kg", "result": 85, "unit": "%"}, {"measurement": "decrease of mean tumor volume after two doses", "setting": "[1]; IV daily 10 mg/kg", "result": 40, "unit": "%"}, {"measurement": "mice tumor free 60 days after the end of the treatment", "setting": "[1]; [19]", "result": 5, "unit": "mice"}, {"measurement": "mice tumor free for at least 32 days after the end of the treatment", "setting": "[1]; [19]", "result": 8, "unit": "mice"}, {"measurement": "mice with rapid and complete tumor regression", "setting": "[1]; [19]", "result": 8, "unit": "mice"}, {"measurement": "mean tumor volume after two doses", "setting": "[1]; IV daily 10 mg/kg, from 114 mm^3", "result": 69, "unit": "mm^3"}, {"measurement": "weight loss compared to control group", "setting": "[1]; all dose-schedules in H146 model, no other signs of toxicity", "result": "no statistically significant weight loss"}, {"measurement": "reduction of mean tumor volume on day 7", "setting": "[1]; single 10 mg/kg dosing, weekly IV schedule", "result": 32, "unit": "%"}, {"measurement": "tumor regression on day 7", "setting": "[1]; single 15 mg/kg dosing, weekly IV schedule", "result": 66, "unit": "%"}, {"measurement": "apoptosis biomarkers in H146 tumors", "setting": "[1]; [20]", "result": "rapid and robust caspase-3 activation and PARP cleavage"}, {"measurement": "IC50", "setting": "[2]", "result": "82 ± 20", "unit": "nM"}, {"measurement": "IC50", "setting": "[3]", "result": "3.5 ± 0.7", "unit": "nM"}, {"measurement": "Ki", "setting": "[3]", "result": "< 1 nM and 0.7 nM"}, {"measurement": "IC50", "setting": "[4]", "result": "538 ± 254", "unit": "nM"}, {"measurement": "IC50", "setting": "[5]", "result": "5 ± 2", "unit": "nM"}, {"measurement": "decrease of mean tumor volume seven days after initiation of treatment", "setting": "[6]; 10 mg/kg daily IV dosing", "result": "> 90", "unit": "%"}, {"measurement": "mice with tumor regrown 40 days after the last dose", "setting": "[6]; 10 mg/kg daily IV dosing", "result": "1 of 6"}, {"measurement": "mice with complete tumor regression", "setting": "[6]; 10 mg/kg daily IV dosing (5 days per week), 6 mice", "result": 6, "unit": "mice"}, {"measurement": "mice tumor free for 61 days after the last dose", "setting": "[6]; 10 mg/kg daily IV dosing, 6 mice", "result": 5, "unit": "mice"}, {"measurement": "weight loss", "setting": "[6]; both daily and weekly dose-schedules", "result": "< 10", "unit": "%"}, {"measurement": "mice with palpable tumor on day 59", "setting": "[6]; daily dosing at 10 mg/kg", "result": "one of six mice"}, {"measurement": "apoptosis biomarkers in H1963 tumors", "setting": "[6]; [20]", "result": "rapid and robust caspase-3 activation and PARP cleavage"}, {"measurement": "duration of complete tumor regression in 5 out of 6 mice", "setting": "[6]; weekly dosing (15 mg/kg)", "result": 38, "unit": "days"}, {"measurement": "duration of complete tumor regression in all mice", "setting": "[6]; weekly dosing (15 mg/kg)", "result": 17, "unit": "days"}, {"measurement": "reduction of mean tumor volume after a single dose", "setting": "[6]; weekly dosing (15 mg/kg)", "result": 66, "unit": "%"}, {"measurement": "tumor response after two doses", "setting": "[6]; weekly dosing (15 mg/kg)", "result": "complete tumor regression"}, {"measurement": "mice with re-occurring tumor on day 59", "setting": "[6]; weekly dosing at 15 mg/kg", "result": "all mice"}, {"measurement": "IC50", "setting": "[7]", "result": "54 ± 30", "unit": "nM"}, {"measurement": "IC50", "setting": "[8]", "result": "6 ± 5", "unit": "nM"}, {"measurement": "IC50", "setting": "[9]", "result": "31 ± 4", "unit": "nM"}, {"measurement": "IC50", "setting": "[10]", "result": "3 ± 1", "unit": "nM"}, {"measurement": "thermal stability of Bcl-xL protein", "setting": "[11]; 1 µM, 1 h", "result": "enhanced"}, {"measurement": "lowest concentration that efficiently stabilized BCL-xL protein", "setting": "[11]; 1 h treatment", "result": 16, "unit": "nM"}, {"measurement": "IC50", "setting": "[12]", "result": "> 2000", "unit": "nM"}, {"measurement": "IC50", "setting": "[13]", "result": "698 ± 354", "unit": "nM"}, {"measurement": "IC50", "setting": "[14]; NCI-H146, 96 h, read-out: IC50 (1% FBS), H146, 4 days, WST assay, 1% FBS", "result": 1.9, "unit": "nM"}, {"measurement": "IC50", "setting": "[14]; NCI-H146, 96 h, read-out: IC50 (1% FBS+3% HSA), H146, 4 days, WST assay, 1% FBS+3% HSA", "result": 1.9, "unit": "nM"}, {"measurement": "IC50", "setting": "[14]; NCI-H146, 96 h, read-out: IC50 (10% FBS), H146, 4 days, WST assay, 10% FBS", "result": 2.6, "unit": "nM"}, {"measurement": "IC50", "setting": "[14]; NCI-H146, 96 h, read-out: IC50 (50% FBS), H146, 4 days, WST assay, 50% FBS", "result": 4.8, "unit": "nM"}, {"measurement": "IC50", "setting": "[14]; NCI-H146, 96-h incubation, means ± SD (n = 3–6), read-out: IC50 cell growth, H146", "result": "3 ± 2", "unit": "nM"}, {"measurement": "fold more potent than ABT-263", "setting": "[15]; 4 cell lines most sensitive to BM-1197", "result": "5-26 fold"}, {"measurement": "IC50", "setting": "[15]; 2 of 12 SCLC cell lines, read-out: IC50 values in the 2 cell lines with weak activity", "result": "> 2000", "unit": "nM"}, {"measurement": "IC50", "setting": "[15]; 3 of 12 SCLC cell lines, read-out: IC50 values in the 3 cell lines with moderate activity", "result": "~600", "unit": "nM"}, {"measurement": "IC50", "setting": "[15]; 7 of 12 SCLC cell lines, read-out: IC50 values in the 7 cell lines with potent activity", "result": "3 to 82", "unit": "nM"}, {"measurement": "IC50", "setting": "[16]", "result": "306 ± 116", "unit": "nM"}, {"measurement": "IC50", "setting": "[17]", "result": "5.2 ± 0.6", "unit": "nM"}, {"measurement": "Ki", "setting": "[17]", "result": "< 1", "unit": "nM"}, {"measurement": "IC50", "setting": "[18]", "result": "> 2000", "unit": "nM"}]}]}
